Results: US8318950B2, “N-acyl amino acid derivatives, a method for the preparation thereof, a pharmaceutical composition and use thereof as anti-allergic, anti-inflammatory and hypolipidemic agents” (Otkrytoe Aktsionernoe Obschestvo-Otechestvennye Lekarstva, priority 2005, dated 2012)

Legend:
[1] = tested on: endogenous hypercholesterolemia in guinea pigs; test: Model of endogenous hypercholesterolemia in guinea pigs (fat loading); type: in vivo, guinea pig; set-up: Serum total cholesterol / Serum total triglyceride levels: unit not given here; conditions: for Serum total cholesterol / Serum total triglyceride levels: fat loading + compound 500 μg/kg orally
Method: The study was carried out on male guinea pigs (Aguti line) weighing 304±25 g. The experiment lasted 31 days. The control group included 6 guinea pigs (intact animals). The compounds studied were administered from day 1 of the experiment (from day 1 of administering fat loading).
The animals of experimental groups received orally for 31 days a compound studied and fat loading. The compound studied at doses indicated below was administered in the form of an aqueous solution (0.5 ml per an animal); fat loading (a mixture of porcine fat and preliminary heated corn oil at 4:1 ratio by volume, at the rate of 5 ml/kg weight 0.5 h post administering the substance studied.
1) “control”—intact animals;
2) “fat”—animals that received fat loading only
3) “compound IV”—animals that received fat loading+compound IV at dose 500 μg/kg body weight;
4) “compound V”—animals that received fat loading+compound V at dose 500 μg/kg body weight.
Statistical processing was carried out using a mono-factorial analysis of variance.

[2] = tested on: allergic pneumonitis in guinea pigs; test: Model of allergic pneumonitis in guinea pigs (broncho-alveolar wash-off cytology); type: in vivo, guinea pig; conditions: 0.1% solution, inhalations daily for 6 days
Method: The model of allergic pneumonitis in guinea pigs was used.
Immunization of the animals was similar to that described in Example 7.
24 hours post the last ovalbumin administration broncho-alveolar wash-off was collected (through a cannula inserted into the trachea), and changes in bronchial mucosa was assessed using a complex of histological and cytological methods.
The compounds tested (0.1% solution) were daily administered in the form of inhalations using a nebulizing device for 6 days; at day 6 of administration, antigen (OA) challenge was performed.
Broncho-alveolar wash-off was obtained in rats and guinea pigs under hexenal anesthesia by double washing the lungs through the trachea with 10 ml normal saline. Viability of cells was determined in the test with tryptane blue. Absolute number of cells in 1 ml (cytosis) was determined in the broncho-alveolar wash-off liquid (BAW) using the Goryaev's chamber. In the smears of the BAW liquid precipitate obtained using centrifugation at 200 g for 10 minutes and then stained according to Romanovskcy-Gimza, endopulmonary cytogram was calculated (in percent) [Avtsyn A. P., Lukomskij G. I., Romanova L. K. et al. Endopul'monal'naya cytogramma.//Sov. Med. 1982. No 7. pp. 8-14].

[3] = tested on: hypercholesterolemia in Wistar rats; test: Model of hypercholesterolemia in rats (oral cholesterol loading); type: in vivo, rat
Method: The study was carried out on male Wistar rats weighing 200±20 g. Hyperlipidemia was induced by oral administration of cholesterol loading, oily cholesterol suspension:
olive oil (Acorsa, Spain)—5 ml/kg weigh of animals;
cholesterol (Sigma, USA)—1 g/kg weight;
sodium cholate (Sigma, USA)—100 mg/kg weight.
As a reference preparation, the preparation from the group of statines “Mevacor” (Lovastatine) manufactured by the firm Merck Sharp & Dohn was used at dose 40 mg/kg. Cholesterol suspension was administered daily in the morning for 10 days. The compounds tested (at dose 500 μg/kg) and the reference preparation (at dose 40 mg/kg) were administered to the animals togester with cholesterol suspension for 10 days. All the animals received a standard briquetted forage.
The animals were divided into the following groups:
“Control”—intact animals (n=5);
“Cholesterol”—rats that orally received cholesterol loading (n=10);
“Lovastatine”—rats that orally received cholesterol loading and Lovastatine (n=10);
“Compound IV”—rats that orally received cholesterol loading and the tested compound IV (n=10).
Blood was sampled at days 5, 8 and 10 of the experiment.
Statistical processing of the hypolipidemic action data of the tested substances was carried out with regard to the “Cholesterol” group (Table 13).
Experimental groups included:
1) “Cholesterol”—rats orally administered with oily cholesterol suspension for 10 days;
2) “Compound IV”—rats orally administered with oily cholesterol suspension and the tested compound N;
3) “Compound IV—1Na”—rats orally administered with oily cholesterol suspension and the tested mono-sodium salt of compound N;
4) “Compound IV—2Na”—rats orally administered with oily cholesterol suspension and the tested di-sodium salt of compound N;
5) “Compound V—1Na”—rats orally administered with oily cholesterol suspension and the tested mono-sodium salt of the compound V;
6) “Compound III—1Na”—rats orally administered with oily cholesterol suspension and the tested mono-sodium salt of the compound III;
7) “Compound II—1Na”—rats orally administered with oily cholesterol suspension and the tested mono-sodium salt of the compound II;
8) “Sim”—rats orally administered with oily cholesterol suspension and Simvastatine;
9) control—intact rats before beginning the test.
At day 10 of the test blood samples were taken following decapitation of the animals. The animals fasted for 12 hours prior to decapitation.
Blood serum total cholesterol, triglycerides and high density lipoprotein cholesterol (HDLC) were measured. Low and very low density lipoprotein cholesterol was calculated by the difference between total cholesterol and HDL cholesterol.
Blood serum total cholesterol and triglycerides were determined using the enzymatic methods.
Cholesterol level in high density lipoproteins (α-LP) was determined using the precipitation method of LDL and VLDL with phosphotungstic acid and magnesium ions.
Data in the tables are presented as a mean value±standard error. Significance of differences between the groups “cholesterol” and “preparation.” was assessed by the two-sampled Student's t-test.

[4] = tested on: allergic rhinitis in guinea pigs; test: Model of allergic rhinitis in guinea pigs (nasal wash-off cytology); type: in vivo, guinea pig; conditions: 0.1% solution, inhalations daily for 6 days
Method: The model of allergic rhinitis in guinea pigs was used.
Guinea pigs were immunized according to the certain scheme for 1.5-2 months (Hutson P. A., Church M. K. et al. 1988): the animals were first immunized by intraperitoneal administration of ovalbumin at dose 10 mg/kg at 7-day interval (twice), then ovalbumin solution was inhaled to the guinea pigs using the Pari nebulizer at increasing concentration beginning from 0.1% and reaching 1% at 4-day intervals between inhalations. The last ovalbumin dose was administered into the nasal passages using a micropipette. 24 hours post the last ovalbumin administration nasal washing was collected (through a system of special tubes) and changes in nasal mucosa was assessed using a complex of histological and cytological methods. The compounds tested (0.1% solution) were daily administered in the form of inhalations using nebulizing device for 6 days; at day 6 of administration, antigen (OA) challenge was performed. Nasal wash-off was obtained 24 hours post challenge.

[5] = day 31, blood serum, 500 μg/kg orally (Table 24)
[6] = day 31, blood serum, 500 μg/kg orally (Table 25)
[7] = day 5 of the experiment (Table 15)
[8] = day 8 of the experiment (Table 16)
[9] = day 10 of the experiment (Table 17)
[10] = dose 500 μg/kg, vs Cholesterol group
[11] = oral 10 days with cholesterol loading, tested compound 500 μg/kg, reference 40 mg/kg (Table 13)

For `O=C(O)CCCC(=O)N[C@@H](Cc1c[nH]cn1)C(=O)O` [Compound IV, N^α-glutaryl-L-histidine], the Serum total cholesterol ([1]; Day 28) was 55.5 ± 6.3, the “Serum total triglyceride levels” value ([1]; Day 28) was 66.8 ± 6.7 and the Serum total cholesterol ([1]; Day 31) was 49.2 ± 3.9. The “Serum total triglyceride levels” value ([1]; Day 31) was 69.0 ± 13.4, the “lowered LDL cholesterol” value ([1]; by day 31 of the experiment) was 37.7% and the “lowered total cholesterol level” value ([1]; by day 31 of the experiment) was 33.9%. The Cholesterol, LDL [1, 5] was 42.1 ± 3.5 mg/100 ml, the Cholesterol, Total [1, 5] was 49.2 ± 3.9 mg/100 ml and the Cholesterol, VLDL [1, 5] was 3 ± 0.71 mg/100 ml. It also gave a Triglycerides, LDL [1, 6] of 29.6 ± 2.4 mg/100 ml, a Triglycerides, Total [1, 6] of 69 ± 13.4 mg/100 ml and a Triglycerides, VLDL [1, 6] of 33.2 ± 12.3 mg/100 ml. For the same compound, the “Absolute number of Macrophags in broncho-alveolar wash-off” value [2] was 640.1 ± 57.98 in 1 μl, the “Cytosis (absolute number of cells in 1 μl) in broncho-alveolar wash-off” value [2] was 1331.3 ± 277.4 cells in 1 μl and the “Total cholesterol, HDL” value [3, 7] was 35.8 ± 1.2 mg/100 ml. The “Total cholesterol, LDL + VLDL” value [3, 7] was 48.5 ± 4.5 mg/100 ml, the “Triglycerides, Serum” value [3, 7] was 120.6 ± 8.9 mg/100 ml and the “Total cholesterol, Serum” value ([3]; day 5 of the experiment (Table 15), oral with oily cholesterol suspension) was 84.2 ± 3.9 mg/100 ml. The “Total cholesterol, HDL” value [3, 8] was 35.9 ± 1.2 mg/100 ml, the “Total cholesterol, LDL + VLDL” value [3, 8] was 67.3 ± 8.7 mg/100 ml and the “Total cholesterol, Serum” value [3, 8] was 103.3 ± 8.1 mg/100 ml. The “Triglycerides, Serum” value [3, 8] was 154.2 ± 11.4 mg/100 ml, the “Total cholesterol, HDL” value [3, 9] was 36.5 ± 0.9 mg/100 ml and the “Total cholesterol, LDL + VLDL” value [3, 9] was 58.7 ± 5.3 mg/100 ml. The “Total cholesterol, Serum” value [3, 9] was 95.2 ± 5.4 mg/100 ml, the “Triglycerides, Serum” value [3, 9] was 143.3 ± 8.9 mg/100 ml and the “lowering LDL cholesterol” value [3, 10] was 29.8%. The lowering hepatic cholesterol [3, 10] was 22.7%, the lowering hepatic triglycerides [3, 10] was 19% and the “lowering serum total cholesterol” value [3, 10] was 19.5%. For the same compound, the “Total cholesterol, CHDL” value [3, 11] was 50.5 ± 1.3 mg/100 ml, the “Total cholesterol, CLLD + CLVLD” value [3, 11] was 46.1 ± 0.9 mg/100 ml and the “Total cholesterol, Liver” value [3, 11] was 2.78 ± 0.28 mg/g of tissue. For the same compound, the “Total cholesterol, Serum” value [3, 11] was 96.6 ± 5.7 mg/100 ml, the “Triglycerids, Liver” value [3, 11] was 5.53 ± 0.19 mg/g of tissue and the “Triglycerids, Serum” value [3, 11] was 95.1 ± 7.9 mg/100 ml. The “Absolute number of Macrophags in nasal wash-off” value [4] was 6.1 ± 0.75 in 1 μl, the “Absolute number of Neutrophils in nasal wash-off” value [4] was 3.1 ± 1.02 in 1 μl and the “Citogram of nasal wash-off: Lymphocytes” value [4] was 5.7 ± 1.54%. The “Cytosis (absolute number of cells in 1 μl) in nasal wash-off” value ([4]; wash-off 24 hours post challenge) was 43.7 ± 6.65°* cells in 1 μl.
